# Results reported in PMC4599001, “Selective Irreversible Inhibition of Neuronal and Inducible Nitric-oxide Synthase in the Combined Presence of Hydrogen Sulfide and Nitric Oxide” (The Journal of Biological Chemistry, 2015).
# “And” between values parts separate entries of the source, which are not always exact repeats. Equal entries are not always repeated. “Also recorded” adds a separate entry of the source. Where two headings read alike, the source gives them in different places.
# Experiments:
# [1] = target: T1, nNOS (Homo sapiens, UniProt P29475); settings: for ActH2S, specific activity (citrulline formation) / Inhibition / vNO^H2S, NO formation rate: 0.5 mM H2S
# T1 sequence (P29475 whole entry): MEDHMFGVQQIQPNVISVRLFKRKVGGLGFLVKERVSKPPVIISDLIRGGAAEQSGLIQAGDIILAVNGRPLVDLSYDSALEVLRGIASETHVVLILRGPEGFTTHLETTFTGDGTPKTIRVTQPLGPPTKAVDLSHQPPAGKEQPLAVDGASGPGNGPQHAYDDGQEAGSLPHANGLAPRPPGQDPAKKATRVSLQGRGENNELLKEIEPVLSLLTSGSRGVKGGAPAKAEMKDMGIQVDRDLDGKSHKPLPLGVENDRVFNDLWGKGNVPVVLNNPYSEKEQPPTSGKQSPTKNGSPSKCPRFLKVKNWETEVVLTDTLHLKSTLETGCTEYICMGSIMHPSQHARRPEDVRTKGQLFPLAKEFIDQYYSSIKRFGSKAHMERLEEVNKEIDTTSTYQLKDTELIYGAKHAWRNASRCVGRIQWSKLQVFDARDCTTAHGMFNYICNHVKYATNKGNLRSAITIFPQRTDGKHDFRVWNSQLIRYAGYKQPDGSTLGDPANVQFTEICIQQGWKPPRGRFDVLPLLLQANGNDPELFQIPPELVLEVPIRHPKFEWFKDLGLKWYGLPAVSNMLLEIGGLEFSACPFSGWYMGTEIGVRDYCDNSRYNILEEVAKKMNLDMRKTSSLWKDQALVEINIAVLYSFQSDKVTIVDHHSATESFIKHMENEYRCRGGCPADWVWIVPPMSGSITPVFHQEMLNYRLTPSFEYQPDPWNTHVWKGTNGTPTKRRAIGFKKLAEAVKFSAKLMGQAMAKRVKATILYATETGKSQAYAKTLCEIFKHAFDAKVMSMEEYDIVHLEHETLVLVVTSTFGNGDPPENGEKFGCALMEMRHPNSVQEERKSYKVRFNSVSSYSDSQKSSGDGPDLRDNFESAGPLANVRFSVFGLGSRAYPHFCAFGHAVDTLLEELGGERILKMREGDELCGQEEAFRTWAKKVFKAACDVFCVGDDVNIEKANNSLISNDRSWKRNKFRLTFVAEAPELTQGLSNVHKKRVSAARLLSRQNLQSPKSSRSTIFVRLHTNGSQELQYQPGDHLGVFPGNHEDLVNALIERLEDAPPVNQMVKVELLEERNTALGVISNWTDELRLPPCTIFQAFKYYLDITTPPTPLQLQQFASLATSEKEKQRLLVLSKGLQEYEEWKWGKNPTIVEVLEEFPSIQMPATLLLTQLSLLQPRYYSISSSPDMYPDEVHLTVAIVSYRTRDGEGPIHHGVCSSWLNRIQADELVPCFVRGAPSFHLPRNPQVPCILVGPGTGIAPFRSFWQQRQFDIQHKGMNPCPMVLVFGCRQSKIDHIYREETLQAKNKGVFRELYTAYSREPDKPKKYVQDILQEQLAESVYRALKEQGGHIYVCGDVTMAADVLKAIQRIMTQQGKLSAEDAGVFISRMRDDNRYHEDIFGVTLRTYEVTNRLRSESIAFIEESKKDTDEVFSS
# [2] = target: T2, eNOS (Homo sapiens, UniProt P29474)
# [3] = target: T3, mouse macrophage iNOS (Mus musculus, UniProt P29477); assay type: biochemical; settings: pH 7.4; read-out: IC50, citrulline formation by iNOS
# T3 construct: made in house; host or cells: Escherichia coli
# T3 sequence (P29477 whole entry): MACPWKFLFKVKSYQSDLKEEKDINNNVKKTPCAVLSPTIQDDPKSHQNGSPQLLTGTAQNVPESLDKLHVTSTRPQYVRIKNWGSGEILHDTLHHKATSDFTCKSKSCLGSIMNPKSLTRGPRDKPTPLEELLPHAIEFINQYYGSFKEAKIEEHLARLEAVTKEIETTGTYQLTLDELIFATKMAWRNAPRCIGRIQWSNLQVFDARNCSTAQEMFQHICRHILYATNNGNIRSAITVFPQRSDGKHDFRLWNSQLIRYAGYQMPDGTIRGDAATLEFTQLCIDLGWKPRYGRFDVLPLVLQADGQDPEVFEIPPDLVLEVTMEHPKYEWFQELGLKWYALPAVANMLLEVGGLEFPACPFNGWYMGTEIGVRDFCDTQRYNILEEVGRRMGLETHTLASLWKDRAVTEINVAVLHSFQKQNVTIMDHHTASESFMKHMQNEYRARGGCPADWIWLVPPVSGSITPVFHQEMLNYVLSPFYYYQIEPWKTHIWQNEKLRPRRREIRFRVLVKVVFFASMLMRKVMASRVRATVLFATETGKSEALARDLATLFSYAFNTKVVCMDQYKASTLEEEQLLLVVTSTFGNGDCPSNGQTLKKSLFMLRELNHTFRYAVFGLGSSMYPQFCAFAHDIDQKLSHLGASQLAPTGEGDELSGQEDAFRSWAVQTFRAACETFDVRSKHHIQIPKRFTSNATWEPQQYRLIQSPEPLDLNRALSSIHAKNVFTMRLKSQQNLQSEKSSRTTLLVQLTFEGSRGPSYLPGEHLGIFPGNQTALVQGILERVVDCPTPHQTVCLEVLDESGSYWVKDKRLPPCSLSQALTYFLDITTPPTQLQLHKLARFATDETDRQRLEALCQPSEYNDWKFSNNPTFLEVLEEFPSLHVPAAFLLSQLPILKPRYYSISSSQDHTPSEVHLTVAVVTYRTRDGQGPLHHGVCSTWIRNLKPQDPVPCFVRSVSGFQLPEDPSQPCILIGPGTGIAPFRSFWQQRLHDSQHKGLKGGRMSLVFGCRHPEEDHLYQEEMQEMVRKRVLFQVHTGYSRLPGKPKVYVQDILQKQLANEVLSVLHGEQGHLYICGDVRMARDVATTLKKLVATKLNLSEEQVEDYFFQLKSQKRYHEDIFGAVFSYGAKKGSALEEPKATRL
# [4] = target: T1, nNOS
# [5] = target: T2, eNOS; assay type: biochemical; settings: for ActH2S, specific activity (citrulline formation) / Inhibition / vNO^H2S, NO formation rate: 0.5 mM H2S
# Target sequence in this assay (P29474 2-1203): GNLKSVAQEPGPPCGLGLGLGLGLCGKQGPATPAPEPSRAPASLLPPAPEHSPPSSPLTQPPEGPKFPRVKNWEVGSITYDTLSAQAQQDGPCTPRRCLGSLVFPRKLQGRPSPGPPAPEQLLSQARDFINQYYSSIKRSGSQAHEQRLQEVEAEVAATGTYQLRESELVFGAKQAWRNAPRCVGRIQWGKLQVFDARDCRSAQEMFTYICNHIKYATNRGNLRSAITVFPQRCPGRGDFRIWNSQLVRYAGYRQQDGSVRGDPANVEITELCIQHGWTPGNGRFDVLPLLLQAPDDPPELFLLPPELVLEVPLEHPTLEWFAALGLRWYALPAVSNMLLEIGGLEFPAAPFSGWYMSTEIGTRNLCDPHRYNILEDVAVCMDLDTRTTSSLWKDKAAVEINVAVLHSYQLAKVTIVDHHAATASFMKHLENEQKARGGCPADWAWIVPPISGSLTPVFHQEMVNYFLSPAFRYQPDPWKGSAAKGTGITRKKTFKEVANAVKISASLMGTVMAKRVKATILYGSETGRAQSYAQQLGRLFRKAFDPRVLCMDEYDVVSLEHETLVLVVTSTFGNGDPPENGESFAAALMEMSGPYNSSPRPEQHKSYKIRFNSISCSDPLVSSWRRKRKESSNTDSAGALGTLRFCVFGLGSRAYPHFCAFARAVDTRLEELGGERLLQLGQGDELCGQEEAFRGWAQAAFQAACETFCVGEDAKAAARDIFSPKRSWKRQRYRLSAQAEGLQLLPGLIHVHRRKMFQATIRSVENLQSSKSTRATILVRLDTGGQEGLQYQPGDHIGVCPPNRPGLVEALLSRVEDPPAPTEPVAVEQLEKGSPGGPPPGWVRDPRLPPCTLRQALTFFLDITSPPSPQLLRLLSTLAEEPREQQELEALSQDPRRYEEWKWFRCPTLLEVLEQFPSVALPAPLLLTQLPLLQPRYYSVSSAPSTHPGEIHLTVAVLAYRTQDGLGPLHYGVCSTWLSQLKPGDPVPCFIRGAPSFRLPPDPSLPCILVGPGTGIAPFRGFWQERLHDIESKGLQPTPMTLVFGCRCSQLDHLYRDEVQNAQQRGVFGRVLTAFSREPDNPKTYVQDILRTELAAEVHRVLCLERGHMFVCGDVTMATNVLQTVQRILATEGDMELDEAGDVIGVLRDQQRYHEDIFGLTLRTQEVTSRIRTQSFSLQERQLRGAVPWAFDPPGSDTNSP
# [6] = target: T1, nNOS; assay type: binding
# [7] = target: T1, nNOS; assay type: biochemical
# [8] = target: T2, eNOS; assay: NADPH oxidation by eNOS (340 nm); assay type: biochemical; settings: +Arg, +BH4, without Na2S
# [9] = cited from earlier work; for t1/2 of NO release: ref 35
# [10] = target: T1, nNOS; assay: NADPH oxidation by nNOS (340 nm); assay type: biochemical
# [11] = test system: nNOS; settings: read-out: IC50, inhibition of nNOS, cited from earlier work
# [12] = 37 °C; cited from earlier work
smiles,measurement,setting,value
"[Na+].[Na+].[O-][N+]([O-])=NO [Angeli's salt, disodium diazen-1-ium-1,2,2-triolate]",Reversal of inhibition by thiols,[1]; 10 mM GSH or 2 mM DTT present,completely reversed in the presence of thiols
same,IC50,"[1]; read-out: IC50, citrulline formation by nNOS, Angeli's salt as HNO donor, 50 mM TEA pH 7.4, 10 min, 37 °C",190 µM
"[Na+].[Na+].[S-2] [Na2S, sodium sulfide]",Dimer/monomer ratio of eNOS,[2],not affected by Na2S at all
same,Effect of thiols on IC50 of inhibition of citrulline formation,[1],none of these thiols had any impact on IC50 values
same,nNOS activity blocked,[1],~90%
same,pKa from plot of IC50 against pH,[1],7.310 ± 0.014
same,IC50,"[1]; read-out: IC50, citrulline formation by nNOS",23 µM
same,IC50,"[1]; read-out: IC50, citrulline formation by nNOS, pH 6",~15 µM and 15 µM
same,IC50,"[1]; read-out: IC50, citrulline formation by nNOS, pH 7.4",~24 µM and 24 µM and 31 µM
same,IC50,"[1]; read-out: IC50, citrulline formation by nNOS, pH 8",~83 µM and 83 µM
same,IC50,[3],~79 µM and 79 µM
same,"Dimeric enzyme, gel filtration",[4],~55%
same,Effect on eNOS activity,[5],hardly affected
same,Effect on citrulline formation by eNOS,[5]; pH 7.4,hardly affected at all; also recorded: only marginally affected
same,Extent of spectral transition to thiol complex,[6],approximately 50%
same,Decrease of nNOS activity after dilution,[7],approximately 70%
same,Reversal of inhibition by thiols,[7],none of these thiols restored the activity
same,nNOS activity after dilution,[7],not affected
"O=C([O-])[C@@H]1CCCN1[N+]([O-])=NO.O=C([O-])[C@@H]1CCCN1[N+]([O-])=NO.[Na+].[Na+] [PROLI/NO, 1-(hydroxy-NNO-azoxy)-L-proline, disodium salt]",IC50,[8],100 µM
same,t1/2 of NO release,[9],0.017 to 0.033 min
same,IC50,"[10]; +Arg, −BH4, in the absence of Na2S, read-out: IC50, NADPH oxidation by nNOS",~80 µM
same,IC50,"[10]; +Arg, −BH4, in the presence of 10 μM Na2S, read-out: IC50, NADPH oxidation by nNOS",~10 µM
"NCCCNCCCCN(CCCN)/[N+]([O-])=N/O [SPER/NO, (Z)-1-[N-[3-aminopropyl]-N-[4-(3-aminopropylammonio)butyl]amino]diazen-1-ium-1,2-diolate]",t1/2 of NO release,[9],~30 min
same,IC50,"[10]; absence of BH4, with Na2S, after 10 min, read-out: Apparent IC50, potentiation of the inhibitory effect of Na2S on NADPH oxidation by nNOS",106 µM
C1COCCN1.COc1ccc(P(=S)(S)N2CCOCC2)cc1 (centres unmarked) [GYY4137],IC50,"[1]; read-out: Apparent IC50, citrulline formation by nNOS",2200 µM
same,t½ of H2S release,[9]; ref 34,~415 min
O[C@@H](CS)[C@@H](O)CS [DTT],IC50,[11]; ref 16,13200 µM
same,IC50,[11]; ref 27,160 µM
"S [H2S, hydrogen sulfide]","ActH2S, specific activity (citrulline formation)",[1]; nNOS 0.5 μg/ml,53 ± 26 nmol/mg/min
same,Inhibition,[1]; nNOS 0.5 μg/ml,86 ± 7%
same,"vNO^H2S, NO formation rate",[1]; nNOS 0.5 μg/ml,0.026 ± 0.013 µM/min
same,"ActH2S, specific activity (citrulline formation)",[1]; nNOS 2.0 μg/ml,31 ± 8 nmol/mg/min
same,Inhibition,[1]; nNOS 2.0 μg/ml,92 ± 2%
same,"vNO^H2S, NO formation rate",[1]; nNOS 2.0 μg/ml,0.062 ± 0.016 µM/min
same,"ActH2S, specific activity (citrulline formation)",[1]; nNOS 10.0 μg/ml,24 ± 2 nmol/mg/min
same,Inhibition,[1]; nNOS 10.0 μg/ml,92 ± 1%
same,"vNO^H2S, NO formation rate",[1]; nNOS 10.0 μg/ml,0.24 ± 0.02 µM/min
same,"ActH2S, specific activity (citrulline formation)",[1]; nNOS 15.0 μg/ml,29 ± 2 nmol/mg/min
same,Inhibition,[1]; nNOS 15.0 μg/ml,91 ± 1%
same,"vNO^H2S, NO formation rate",[1]; nNOS 15.0 μg/ml,0.44 ± 0.03 µM/min
same,pKa of the H2S/HS− equilibrium,[12],6.76
same,"ActH2S, specific activity (citrulline formation)",[5]; eNOS 2.0 μg/ml,98 ± 12 nmol/mg/min
same,Inhibition,[5]; eNOS 2.0 μg/ml,24 ± 16%
same,"vNO^H2S, NO formation rate",[5]; eNOS 2.0 μg/ml,0.20 ± 0.02 µM/min
same,"ActH2S, specific activity (citrulline formation)",[5]; eNOS 10.0 μg/ml,134 ± 16 nmol/mg/min
same,Inhibition,[5]; eNOS 10.0 μg/ml,16 ± 12%
same,"vNO^H2S, NO formation rate",[5]; eNOS 10.0 μg/ml,1.34 ± 0.16 µM/min
same,"ActH2S, specific activity (citrulline formation)",[5]; eNOS 15.0 μg/ml,146 ± 19 nmol/mg/min
same,Inhibition,[5]; eNOS 15.0 μg/ml,5 ± 14%
same,"vNO^H2S, NO formation rate",[5]; eNOS 15.0 μg/ml,2.2 ± 0.3 µM/min
same,"ActH2S, specific activity (citrulline formation)",[5]; eNOS 30.0 μg/ml,136 ± 38 nmol/mg/min
same,Inhibition,[5]; eNOS 30.0 μg/ml,−6 ± 35%
same,"vNO^H2S, NO formation rate",[5]; eNOS 30.0 μg/ml,4.1 ± 1.1 µM/min
same,IC50,"[10]; Arg and/or BH4 omitted, no NO (span over conditions), read-out: IC50, reversible inhibition of nNOS by H2S alone",100 to 600 µM
same,Decrease of nNOS activity after dilution,"[7]; preincubation with 0.5 mM Na2S under turnover conditions (+CaM), 150-fold dilution",~70%
same,nNOS activity after dilution,"[7]; preincubation with 0.5 mM Na2S, CaM omitted during preincubation",activity was not affected
